Experimental data reported in ChEMBL document CHEMBL1201862, “PubChem BioAssay data set” (2004).
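In this assay, cells in 96-well plates receive the compound at five concentrations for 48 hours. Endpoints are linearly interpolated between the surrounding concentrations. GI50 is the concentration that inhibits growth by half.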 Activity calls are given as the source filed them. Cut-off read from the data, not from the text of the source: active = GI50 up to about 1.1 µM and inactive = higher.

Experiments:
Assay in all cases: NCI anticancer screen, dose series, 48 h
A498 = system: A498
A549 = system: A549
ACHN = system: ACHN
CAKI-1 = system: CAKI-1
CCRF-CEM = system: CCRF-CEM
COLO 205 = system: COLO 205
DLD-1 = system: DLD-1
DMS-273 = system: DMS-273
EKVX = system: EKVX
HCC 2998 = system: HCC 2998
HCT-15 = system: HCT-15
HL-60 = system: HL-60
HOP-18 = system: HOP-18
HT-29 = system: HT-29
IGROV-1 = system: IGROV-1
K562 = system: K562
KM-20L2 = system: KM-20L2
KM12 = system: KM12
LOX IMVI = system: LOX IMVI
LXFL 529 = system: LXFL 529
M19-MEL = system: M19-MEL
MOLT-4 = system: MOLT-4
Malme-3M = system: Malme-3M
NCI-H226 = system: NCI-H226
NCI-H23 = system: NCI-H23
NCI-H460 = system: NCI-H460
NCI-H522 = system: NCI-H522
OVCAR-3 = system: OVCAR-3
OVCAR-4 = system: OVCAR-4
OVCAR-5 = system: OVCAR-5
OVCAR-8 = system: OVCAR-8
RPMI-8226 = system: RPMI-8226
RXF 393 = system: RXF 393
SF-268 = system: SF-268
SF-295 = system: SF-295
SK-MEL-28 = system: SK-MEL-28
SK-MEL-2 = system: SK-MEL-2
SK-MEL-5 = system: SK-MEL-5
SK-OV-3 = system: SK-OV-3
SN12C = system: SN12C
SNB-19 = system: SNB-19
SNB-75 = system: SNB-75
SNB-78 = system: SNB-78
SW-620 = system: SW-620
TK-10 = system: TK-10
U-251 = system: U-251
UACC-257 = system: UACC-257
UACC-62 = system: UACC-62
UO-31 = system: UO-31
XF498 = system: XF498

## O=C1OC(c2ccc(Cl)cc2)(c2ccc(Cl)cc2)c2c1ccc1ccccc21
A498
  GI50: > 100 µM (inactive)
A549
  GI50: > 100 µM (inactive)
ACHN
  GI50: > 100 µM (inactive)
CAKI-1
  GI50: > 100 µM (inactive)
CCRF-CEM
  GI50: > 100 µM (inactive)
COLO 205
  GI50: > 100 µM (inactive)
DLD-1
  GI50: > 100 µM (inactive)
DMS-273
  GI50: > 100 µM (inactive)
EKVX
  GI50: > 100 µM (inactive)
HCC 2998
  GI50: > 100 µM (inactive)
HCT-15
  GI50: > 100 µM
HL-60
  GI50: 8.69 µM (inactive)
HOP-18
  GI50: > 100 µM (inactive)
HT-29
  GI50: > 100 µM (inactive)
IGROV-1
  GI50: > 100 µM (inactive)
K562
  GI50: 54.5 µM (inactive)
KM-20L2
  GI50: > 100 µM (inactive)
KM12
  GI50: > 100 µM (inactive)
LOX IMVI
  GI50: > 100 µM (inactive)
LXFL 529
  GI50: > 100 µM (inactive)
M19-MEL
  GI50: > 100 µM (inactive)
MOLT-4
  GI50: 39.4 µM (inactive)
Malme-3M
  GI50: > 100 µM (inactive)
NCI-H226
  GI50: 71.4 µM (inactive)
NCI-H23
  GI50: 8.67 µM (inactive)
NCI-H460
  GI50: > 100 µM (inactive)
NCI-H522
  GI50: 44.4 µM (inactive)
OVCAR-3
  GI50: > 100 µM (inactive)
OVCAR-4
  GI50: > 100 µM (inactive)
OVCAR-5
  GI50: > 100 µM (inactive)
OVCAR-8
  GI50: > 100 µM (inactive)
RPMI-8226
  GI50: 5.94 µM (inactive)
RXF 393
  GI50: 20.9 µM (inactive)
SF-268
  GI50: > 100 µM (inactive)
SF-295
  GI50: > 100 µM (inactive)
SK-MEL-28
  GI50: > 100 µM (inactive)
SK-MEL-2
  GI50: > 100 µM (inactive)
SK-MEL-5
  GI50: 52.5 µM (inactive)
SK-OV-3
  GI50: > 100 µM (inactive)
SN12C
  GI50: > 100 µM (inactive)
SNB-19
  GI50: > 100 µM (inactive)
SNB-75
  GI50: 36.7 µM (inactive)
SNB-78
  GI50: > 100 µM (inactive)
SW-620
  GI50: > 100 µM (inactive)
TK-10
  GI50: > 100 µM (inactive)
U-251
  GI50: > 100 µM (inactive)
UACC-257
  GI50: > 100 µM (inactive)
UACC-62
  GI50: > 100 µM (inactive)
UO-31
  GI50: 92.3 µM (inactive)
XF498
  GI50: > 100 µM (inactive)
